Source: EPA's ToxValDB 9.5 (doi:10.2903/j.efsa.2009.194r)

Key:
Aphidius rhopalosiphi = conditions: chronic/long-term
Tagia sp. = conditions: acute; duration: 14 days; mortality
Daphnia magna = conditions: chronic/long-term; duration: 21 days; reproduction
Apis mellifera = conditions: acute; duration: 48 hours; dermal; mortality
Rattus norvegicus = conditions: for NOAEL: hematological
Lepomis macrochirus = conditions: acute; duration: 96 hours; mortality
Canidae = conditions: chronic; duration: 1 years; oral; Dog Other; hematological
Typhlodromus pyri = conditions: chronic/long-term
Colinus virginianus = conditions: for LD50: acute, oral, mortality
Pimephales promelas = conditions: chronic/long-term; duration: 36 days; growth

For `O=C(NC(=O)c1ccccc1Cl)Nc1ccc(OC(F)(F)F)cc1` [Triflumuron], the LEL (Aphidius rhopalosiphi; mortality) was 300 g/ha, the LEL (Aphidius rhopalosiphi; reproduction) was 300 g/ha and the LC50 (Tagia sp.) was greater than 500 mg/kg. For the same compound, the NOEC (Daphnia magna) was 3.2e-05 mg/L, the LD50 (Apis mellifera) was greater than 200 µg/piece and the LD50 (Rattus norvegicus; acute, oral, mortality) was greater than 5000 mg/kg-day. It also gave an NOEC (Rattus norvegicus; chronic) of 142 mg/kg-day, an NOAEL (Rattus norvegicus; chronic, duration: 2 years) of 0.82 mg/kg-day and an NOAEL (Rattus norvegicus; subchronic, duration: 90 days, oral) of 3.6 mg/kg-day. For the same compound, the LC50 (Lepomis macrochirus) was greater than 0.0208 µg/mL, the NOAEL (Canidae) was 1.42 mg/kg-day and the LEL (Typhlodromus pyri; duration: 7 days, mortality) was 384 g/ha. The LEL (Typhlodromus pyri; reproduction) was 384 g/ha, the LD50 (Colinus virginianus; diet) was greater than 805 mg/kg-day and the LD50 (Colinus virginianus) was 561 mg/kg-day. The NOEC (Colinus virginianus; reproduction developmental) was 1.65 mg/kg-day and the NOEC (Pimephales promelas) was no less than 0.0228 mg/L.
